According to ChEMBL document CHEMBL1124469, “Synthesis and dopaminergic activity of 2-substituted octahydrobenzo[f]quinolines” (J Med Chem, 1989):

Columns and labels:
[1] = target: D(2) dopamine receptor (Bos taurus) (UniProt P20288); assay: Low percent binding affinity for different states of the Dopamine D-2 receptor in bovine anterior pituitary membranes, using radioligand [3H]spiroperidol; assay type: cell membranes
[2] = target: D(2) dopamine receptor (Bos taurus) (UniProt P20288); assay: High percent binding affinity for different states of the Dopamine receptor D2 in bovine anterior pituitary membranes, using radioligand [3H]spiroperidol
D(2) dopamine receptor [3] = target: T1, D(2) dopamine receptor (Bos taurus, UniProt P20288); assay: Low binding affinity for dopamine D-2 receptor from bovine anterior pituitary membrane, using radioligand [3H]spiroperidol in bovine anterior pituitary membranes; assay type: cell membranes
T1 sequence (P20288 whole entry): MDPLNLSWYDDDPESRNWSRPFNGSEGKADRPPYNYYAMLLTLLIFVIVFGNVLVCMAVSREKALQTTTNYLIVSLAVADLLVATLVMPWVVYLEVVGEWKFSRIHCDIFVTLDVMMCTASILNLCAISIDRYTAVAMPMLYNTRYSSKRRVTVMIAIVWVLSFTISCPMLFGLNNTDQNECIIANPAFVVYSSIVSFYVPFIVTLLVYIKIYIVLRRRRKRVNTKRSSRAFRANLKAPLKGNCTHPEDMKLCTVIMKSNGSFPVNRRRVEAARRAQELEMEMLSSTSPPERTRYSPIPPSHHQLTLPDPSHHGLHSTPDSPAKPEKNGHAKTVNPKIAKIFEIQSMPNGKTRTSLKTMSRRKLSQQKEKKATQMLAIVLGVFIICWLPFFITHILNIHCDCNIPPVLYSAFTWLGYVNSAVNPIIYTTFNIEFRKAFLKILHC

D(2) dopamine receptor [4] = target: T1, D(2) dopamine receptor; assay: High binding affinity for dopamine D-2 receptor from bovine anterior pituitary membrane, using radioligand [3H]spiroperidol in bovine anterior pituitary membranes; assay type: cell membranes
D(2) dopamine receptor [5] = target: T1, D(2) dopamine receptor; assay: Low binding affinity for dopamine D-2 receptor from bovine anterior pituitary membrane, using radioligand [3H]spiroperidol
D(2) dopamine receptor [6] = target: T1, D(2) dopamine receptor; assay: High binding affinity for dopamine D-2 receptor from bovine anterior pituitary membrane, using radioligand [3H]spiroperidol
[7] = target: D(2) dopamine receptor (Bos taurus) (UniProt P20288); assay: Low percent binding affinity for different states of the dopamine receptor D2 in bovine anterior pituitary membranes, using radioligand [3H]spiroperidol; assay type: cell membranes
D(2) dopamine receptor [8] = target: T1, D(2) dopamine receptor; assay: Low binding affinity for dopamine receptor D2 from bovine anterior pituitary membrane, using radioligand [3H]spiroperidol in bovine anterior pituitary membranes; assay type: cell membranes

D(2) dopamine receptor (Bos taurus), sequence (P20288 whole entry): as above

Structure (SMILES) | Low [1] [%] | Percent of receptors in high-affinity state [2] [%] | Ki (D(2) dopamine receptor [5]) [µM] | further results
NCCc1ccc(O)c(O)c1 | 69 |  |  | High [2]: 31%
CCCN1C[C@H](CSC)C[C@@H]2c3cc(O)ccc3CC[C@H]21 | 79 | 21 |  | Ki (D(2) dopamine receptor [3]): 1.21 µM; Ki (D(2) dopamine receptor [4]): 0.014 µM
CCCN1C[C@H](CC#N)C[C@@H]2c3ccc(O)c(O)c3CC[C@H]21 | 100 |  | 1.46 | 
CCCN1C[C@H](CSC)C[C@@H]2c3cc(O)c(O)cc3CC[C@H]21 | 67 | 33 |  | 
CCCN1C[C@H](CC#N)C[C@@H]2c3cc(O)ccc3CC[C@H]21 | 70 | 30 |  | Ki (D(2) dopamine receptor [3]): 0.28 µM; Ki (D(2) dopamine receptor [4]): 0.004 µM
CCCN1C[C@H](C)C[C@@H]2c3cccc(O)c3CC[C@H]21 | 100 |  |  | 
CCCN1C[C@H](CSC)C[C@@H]2c3ccc(O)c(O)c3CC[C@H]21 | 100 |  | 1.73 | 
CCCN1C[C@H](C)C[C@@H]2c3cc(O)ccc3CC[C@H]21 | 87 | 13 | 1.94 | Ki (D(2) dopamine receptor [6]): 0.008 µM
CCCN1C[C@H](CC#N)C[C@@H]2c3cccc(O)c3CC[C@H]21 | 100 |  |  | Ki (D(2) dopamine receptor [3]): 5.39 µM
CCCN1C[C@H](CSC)C[C@@H]2c3cccc(O)c3CC[C@H]21 |  |  |  | Low [7]: 100%; Ki (D(2) dopamine receptor [8]): 0.25 µM
CCCN1C[C@H](CC#N)C[C@@H]2c3cc(O)c(O)cc3CC[C@H]21 | 56 | 44 | 0.36 | Ki (D(2) dopamine receptor [6]): 0.006 µM
